The values below come from US20260364028A1, “COMBINATION TREATMENTS FOR DEPRESSION AND OTHER DISORDERS” (NEURAWELL THERAPEUTICS, priority 2023, published 2026).

For data set [1] the following is noted: plasma, cited from earlier work.
Data set [2] relates to systolic or diastolic blood pressure. The note with it: cited from earlier work.
Data set [3] concerns tyramine pressor response. The conditions noted are these: cited from earlier work; for TSF High / TSF Low: literature-reported.
Data set [4] addresses T1, Monoamine Oxidase MAO-A (Homo sapiens, UniProt P21397).
T1 construct: host or cells: insect cells (recombinant)
T1 sequence (P21397 1-527): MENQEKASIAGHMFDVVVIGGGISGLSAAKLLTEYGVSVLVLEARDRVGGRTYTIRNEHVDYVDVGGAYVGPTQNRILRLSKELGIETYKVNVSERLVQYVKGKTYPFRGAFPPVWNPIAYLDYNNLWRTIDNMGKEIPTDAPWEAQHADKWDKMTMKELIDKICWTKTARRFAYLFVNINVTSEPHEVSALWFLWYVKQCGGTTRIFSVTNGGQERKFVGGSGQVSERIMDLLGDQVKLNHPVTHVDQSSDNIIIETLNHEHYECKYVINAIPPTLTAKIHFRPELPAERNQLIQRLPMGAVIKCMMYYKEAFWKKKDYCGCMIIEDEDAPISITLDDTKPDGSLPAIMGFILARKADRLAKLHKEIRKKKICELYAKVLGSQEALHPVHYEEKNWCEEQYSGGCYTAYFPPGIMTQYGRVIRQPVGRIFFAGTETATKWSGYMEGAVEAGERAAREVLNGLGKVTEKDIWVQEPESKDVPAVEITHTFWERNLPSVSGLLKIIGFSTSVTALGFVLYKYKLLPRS
In words: Monoamine oxidase MAO-A inhibition enzyme assay (kynuramine, spectrofluorimetric). It counts as biochemical. The conditions noted are these: for interference with the inhibition of MAO-A by phenelzine (in words): beta blocker in presence of phenelzine […] nM and 150 nM; for inhibition at 2 µM / inhibitory activity of MAO-A (in words): beta blocker alone; for inhibitory activity of MAO-A (in words): significant = ≥50% inhibition.

Data set [5] addresses T2, Monoamine Oxidase MAO-B (Homo sapiens, UniProt P27338).
T2 construct: host or cells: insect cells (recombinant)
T2 sequence (P27338 1-520): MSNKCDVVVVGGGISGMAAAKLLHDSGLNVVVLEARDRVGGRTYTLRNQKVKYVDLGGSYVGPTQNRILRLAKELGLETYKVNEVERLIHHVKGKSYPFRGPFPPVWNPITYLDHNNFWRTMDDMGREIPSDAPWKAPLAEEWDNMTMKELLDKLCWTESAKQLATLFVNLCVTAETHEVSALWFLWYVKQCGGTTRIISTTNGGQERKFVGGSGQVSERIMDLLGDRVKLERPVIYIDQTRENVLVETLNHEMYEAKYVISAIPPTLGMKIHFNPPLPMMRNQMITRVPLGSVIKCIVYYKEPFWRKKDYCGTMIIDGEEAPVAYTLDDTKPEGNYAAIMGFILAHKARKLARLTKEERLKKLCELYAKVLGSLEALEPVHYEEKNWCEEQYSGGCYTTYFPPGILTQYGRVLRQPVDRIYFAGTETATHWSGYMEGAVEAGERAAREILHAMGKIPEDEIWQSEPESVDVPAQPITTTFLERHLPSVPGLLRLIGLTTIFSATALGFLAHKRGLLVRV
In words: Monoamine oxidase MAO-B inhibition enzyme assay (kynuramine, spectrofluorimetric). The class given is biochemical. The conditions noted are these: for inhibition at 2 µM: read-out: % MAO-B inhibition.

For data set [6], the system named is depression. The conditions noted are these: meta-analysis of 14 antidepressants and placebo; cited from earlier work.
The conditions of data set [7]: typical circumstances, no MAO inhibition; cited from earlier work.
Where [8] appears, read: Tranylcypromine 20 mg/d with placebo (no beta blocker).
The mark [9] stands for this setting: Phenelzine 60 mg/d with placebo (no beta blocker).
Where [10] appears, read: Selegiline 10 mg/d with placebo (no beta blocker).

Where two headings read alike, the source gives them in different places.

Usually half-life stands for the time in which the quantity being followed falls by half. `N[C@@H]1C[C@H]1c1ccccc1` (relative stereo) [Tranylcypromine]: in data set [1], the half-life result is reported as “approximately 2.5 hours”. For the same compound, the “patients with significant transient blood pressure increases (20 mmHg or more) immediately after taking” value in data set [2] was “approximately 50%”. For the same compound, in data set [3] (setting [8]), the “TSF High” value is 55 and the “TSF Low” value is reported as 30. The TSF in data set [3] (tranylcypromine at 20 mg/day) is recorded as 55.

What is called inhibition is the change of the read-out against control, counted positive when it falls. Turning to `CC(C)NCC(O)COc1ccc(COCCOC(C)C)cc1` (centres unmarked) [Bisoprolol], the “interference with the inhibition of MAO-A by phenelzine (in words)” value in data set [4] is given as “no interference was observed”. Besides, in data set [4] (role: inhibitor), the inhibition at 2 µM was -5% and the “inhibitory activity of MAO-A (in words)” value is “no significant inhibitory activity”. Also, in data set [5], the “inhibitory activity of MAO-B (in words)” value is “no significant inhibitory activity”, the “interference with the inhibition of MAO-B by phenelzine (in words)” value is given as “no interference was observed” and the inhibition at 2 µM came out at 13%. The half-life in data set [1] was 9 to 12 h.

Take `COc1ccccc1OCCNCC(O)COc1cccc2[nH]c3ccccc3c12` (centres unmarked) [Carvedilol]: the “interference with the inhibition of MAO-A by phenelzine (in words)” value in data set [4] was “no interference was observed”. In data set [4] (role: inhibitor), the inhibition at 2 µM was found to be 4% and the “inhibitory activity of MAO-A (in words)” value is recorded as “no significant inhibitory activity”. In data set [5], the “inhibitory activity of MAO-B (in words)” value is “no significant inhibitory activity”, the “interference with the inhibition of MAO-B by phenelzine (in words)” value was “no interference was observed” and the inhibition at 2 µM stood at 23%.

As for `COC(=O)CCc1ccc(OCC(O)CNC(C)C)cc1` (centres unmarked) [Esmolol], the half-life result in data set [1] is “approximately 9 minutes”.

Regarding `Cc1cc(C(=O)NNCc2ccccc2)no1` [Isocarboxazide], in data set [4] (role: inhibitor, isocarboxazid 10 μM), the “% MAO-A inhibition” value was 91%. In addition, in data set [5], the “% MAO-B inhibition” value amounted to 98%.

Take `NNCCc1ccccc1` [Phenelzine]: in data set [6], the “efficacy compared to all other treatments (in words)” value is recorded as “superior efficacy compared to all other treatments”. Also, the half-life entry in data set [1] is listed as “approximately 11.6 hours”. In addition, the “patients with significant transient blood pressure increases (20 mmHg or more) immediately after taking” value in data set [2] is reported as “approximately 50%”. Further, in data set [3] (setting [9]), the “TSF High” value was 30 and the “TSF Low” value is recorded as 9. The TSF in data set [3] (phenelzine at 45 mg/day) is reported as 13.3.

As for `CC(C)NCC(O)COc1cccc2[nH]ccc12` (centres unmarked) [Pindolol, 1-(Indol-4-yloxy)-3-(isopropylamino)-2-propanol], the “interference with the inhibition of MAO-A by phenelzine (in words)” value in data set [4] is on record as “no interference was observed”. Besides, in data set [4] (role: inhibitor), the inhibition at 2 µM is -1% and the “inhibitory activity of MAO-A (in words)” value is given as “no significant inhibitory activity”. Moreover, in data set [5], the “inhibitory activity of MAO-B (in words)” value is reported as “no significant inhibitory activity”, the “interference with the inhibition of MAO-B by phenelzine (in words)” value was “no interference was observed” and the inhibition at 2 µM is -5%. For the same compound, in data set [1], the half-life was 3 to 4 h.

For the compound `C#CCN(C)[C@H](C)Cc1ccccc1` [Selegiline], the half-life result in data set [1] (human) was “approximately 10 hours”. In addition, in data set [3] (setting [10]), the “TSF High” value is 4 and the “TSF Low” value is 3.

For `NCCc1ccc(O)cc1` [tyramine], the “dietary tyramine ending up in systemic circulation” value in data set [7] is “less than 1%”.
